Results on eleven molecules are retold here after patent US6710040B1, “Fluorinated cyclic amides as dipeptidyl peptidase IV inhibitors” (Pfizer Inc., priority 2002, dated 2004).

A word on the melting point: it is the temperature, or range, at which the solid turns liquid.

Each structure is given as a SMILES string. Structures can show the parent of a compound that is named as a salt.

Regarding `Cl.N[C@H](C(=O)N1CC(F)(F)C1)C1CCCCC1`, the melting point is 220 °C (dec.). With `CCC(C)[C@H](N)C(=O)N1CC(F)(F)C1.Cl` (some centres unmarked), the melting point is 195 °C (dec.). The same measure for `CCC(C)[C@H](N)C(=O)N1CCC(F)(F)CC1.Cl` (some centres unmarked): 190 to 192 °C.

As for `C[C@H](N)C(=O)N1CC(F)(F)C(F)(F)C1.Cl`, the melting point is over 250 °C.

The molecule `CC[C@H](C)[C@H](N)C(=O)N1CC(F)C1` (as salt: hydrochloride) [Example 2, (2S,3S)-2-Amino-1-(3-fluoro-azetidin-1-yl)-3-methyl-pentan-1-one] gave a melting point of 208 to 210 °C. `N[C@H](C(=O)N1CC(F)(F)C(F)(F)C1)C1CCCCC1` (as salt: hydrochloride) [Example 3, (S)-2-Amino-2-cyclohexyl-1-(3,3,4,4-tetrafluoro-pyrrolidin-1-yl)-ethanone] had a melting point of 278 °C. Consider `CC[C@@H](C)[C@H](N)C(=O)N1CC(F)(F)C(F)(F)C1` (as salt: hydrochloride) [Example 4, (2S,3R)-2-Amino-3-methyl-1-(3,3,4,4-tetrafluoro-pyrrolidin-1-yl)-pentan-1-one], for which the melting point was over 250 °C. Then `N[C@H](C(=O)N1CC(F)C1)C1CCCCC1` (as salt: hydrochloride) [Example 5, (S)-2-Amino-2-cyclohexyl-1-(3-fluoro-azetidin-1-yl)-ethanone], with 238 to 240 °C; and `CC(C)[C@H](N)C(=O)N1CC(F)(F)C(F)(F)C1` (as salt: hydrochloride) [Example 6, (S)-2-Amino-3-methyl-1-(3,3,4,4-tetrafluoro-pyrrolidin-1-yl)-butan-1-one], with 234 to 238 °C.

The molecule `CC[C@@H](C)[C@H](N)C(=O)N1CCC(F)(F)C1` [Example 7, (2S,3R)-2-Amino-1-(3,3-difluoro-pyrrolidin-1-yl)-3-methyl-pentan-1-one] came in with a melting point of 196 to 198 °C. On to `CC[C@H](C)[C@H](N)C(=O)N1CCC(F)(F)C1` [Example 8, (2S,3S)-2-Amino-1-(3,3-difluoro-pyrrolidin-1-yl)-3-methyl-pentan-1-one], for which the melting point fell in the range of 195 to 198 °C.
